Experimental data taken from patent EP4722207A1, “OXOISOINDOLINYL-SUBSTITUTED TETRAHYDROPYRIMIDINEDIONE DERIVATIVE AND USE THEREOF” (Gluetacs Therapeutics (Shanghai) Co., Ltd., priority 2023, dated 2024).

Columns and labels:
Type in all cases: cell-based
Conditions in all cases: compounds at 50 nM and 500 nM, 24 hours
[1] = molecular target: T1, GSPT1 (Homo sapiens, UniProt P15170+Q96SW2); experiment: Western-blot assay, substrate protein degradation in hPBMCs: GSPT1
T1 construct: effects of the compounds of the present disclosure on the expression of target proteins in cells; endogenous in cells; host or cells: human PBMCs (hPBMCs)

[2] = molecular target: T2, CK1α (Homo sapiens, UniProt P48729+Q96SW2); experiment: Western-blot assay, substrate protein degradation in hPBMCs: CK1α
T2 construct: effects of the compounds of the present disclosure on the expression of target proteins in cells; endogenous in cells; host or cells: human PBMCs (hPBMCs)
T2 sequence (P48729 whole entry): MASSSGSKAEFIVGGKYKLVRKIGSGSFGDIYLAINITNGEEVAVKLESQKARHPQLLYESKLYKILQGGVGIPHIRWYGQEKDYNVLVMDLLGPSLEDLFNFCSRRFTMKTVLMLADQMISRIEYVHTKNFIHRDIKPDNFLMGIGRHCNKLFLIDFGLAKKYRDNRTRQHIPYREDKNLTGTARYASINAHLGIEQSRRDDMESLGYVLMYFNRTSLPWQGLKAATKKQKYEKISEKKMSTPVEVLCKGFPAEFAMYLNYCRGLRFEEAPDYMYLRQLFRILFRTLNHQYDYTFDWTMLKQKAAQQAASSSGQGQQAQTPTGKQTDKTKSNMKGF
T2 sequence (Q96SW2 whole entry): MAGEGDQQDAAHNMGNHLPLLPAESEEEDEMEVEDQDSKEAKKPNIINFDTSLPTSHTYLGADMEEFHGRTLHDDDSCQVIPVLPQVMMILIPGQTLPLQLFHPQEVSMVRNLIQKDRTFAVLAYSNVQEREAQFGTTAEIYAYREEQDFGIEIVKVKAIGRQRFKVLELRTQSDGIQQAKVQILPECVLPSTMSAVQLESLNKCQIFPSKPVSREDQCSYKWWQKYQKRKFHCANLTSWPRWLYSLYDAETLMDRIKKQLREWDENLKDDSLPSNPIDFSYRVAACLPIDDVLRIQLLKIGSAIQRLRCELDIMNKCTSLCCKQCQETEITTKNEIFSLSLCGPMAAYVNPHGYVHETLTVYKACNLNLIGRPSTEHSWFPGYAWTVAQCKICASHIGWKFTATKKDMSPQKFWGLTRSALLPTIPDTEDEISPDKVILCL
T2 sequence (Q16531 whole entry partner): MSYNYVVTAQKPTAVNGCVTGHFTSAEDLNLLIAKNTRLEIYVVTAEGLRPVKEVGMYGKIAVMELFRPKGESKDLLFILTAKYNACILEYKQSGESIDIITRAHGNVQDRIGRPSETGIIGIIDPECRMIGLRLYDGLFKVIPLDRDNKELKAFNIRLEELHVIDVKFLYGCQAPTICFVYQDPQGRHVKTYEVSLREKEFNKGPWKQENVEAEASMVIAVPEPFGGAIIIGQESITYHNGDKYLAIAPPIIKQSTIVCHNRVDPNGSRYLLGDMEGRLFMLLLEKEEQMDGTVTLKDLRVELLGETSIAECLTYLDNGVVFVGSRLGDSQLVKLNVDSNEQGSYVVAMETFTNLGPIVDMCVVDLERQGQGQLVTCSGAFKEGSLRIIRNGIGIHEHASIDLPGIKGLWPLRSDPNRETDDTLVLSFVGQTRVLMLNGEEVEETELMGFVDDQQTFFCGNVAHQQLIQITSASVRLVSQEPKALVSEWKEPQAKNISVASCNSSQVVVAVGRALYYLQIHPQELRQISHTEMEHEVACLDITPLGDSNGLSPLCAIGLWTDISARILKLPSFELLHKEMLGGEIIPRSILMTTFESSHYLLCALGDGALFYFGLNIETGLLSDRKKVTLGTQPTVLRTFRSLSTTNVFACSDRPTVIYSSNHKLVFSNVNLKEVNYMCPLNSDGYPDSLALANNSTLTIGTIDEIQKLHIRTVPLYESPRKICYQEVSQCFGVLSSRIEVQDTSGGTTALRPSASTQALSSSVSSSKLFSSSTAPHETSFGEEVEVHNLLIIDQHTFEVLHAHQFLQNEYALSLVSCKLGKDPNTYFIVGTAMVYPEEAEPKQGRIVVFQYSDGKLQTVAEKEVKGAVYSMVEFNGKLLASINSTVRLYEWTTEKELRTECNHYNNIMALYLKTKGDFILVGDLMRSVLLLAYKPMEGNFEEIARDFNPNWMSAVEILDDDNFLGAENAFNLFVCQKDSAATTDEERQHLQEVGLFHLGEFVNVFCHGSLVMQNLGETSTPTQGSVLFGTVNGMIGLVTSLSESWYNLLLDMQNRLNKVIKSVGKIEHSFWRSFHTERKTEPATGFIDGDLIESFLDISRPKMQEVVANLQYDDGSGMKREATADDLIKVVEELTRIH

[3] = molecular target: T3, IKZF3 (Homo sapiens, UniProt Q96SW2+Q9UKT9); experiment: Western-blot assay, substrate protein degradation in hPBMCs: IKZF3
T3 construct: effects of the compounds of the present disclosure on the expression of target proteins in cells; endogenous in cells; host or cells: human PBMCs (hPBMCs)
T3 sequence (Q9UKT9 whole entry): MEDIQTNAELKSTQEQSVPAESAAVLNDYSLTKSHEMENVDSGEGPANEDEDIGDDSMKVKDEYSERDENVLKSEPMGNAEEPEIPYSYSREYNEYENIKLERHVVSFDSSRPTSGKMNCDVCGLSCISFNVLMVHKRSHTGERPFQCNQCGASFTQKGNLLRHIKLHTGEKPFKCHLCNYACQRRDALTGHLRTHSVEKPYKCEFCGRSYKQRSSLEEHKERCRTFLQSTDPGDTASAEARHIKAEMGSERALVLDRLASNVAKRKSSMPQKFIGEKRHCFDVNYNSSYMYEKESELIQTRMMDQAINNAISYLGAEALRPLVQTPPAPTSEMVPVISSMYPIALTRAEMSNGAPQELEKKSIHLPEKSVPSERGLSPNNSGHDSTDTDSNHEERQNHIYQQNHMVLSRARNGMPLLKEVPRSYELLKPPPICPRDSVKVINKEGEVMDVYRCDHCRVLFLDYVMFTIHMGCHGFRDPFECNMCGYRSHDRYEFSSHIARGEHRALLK
T3 sequence (Q96SW2 whole entry): as the sequence (Q96SW2 whole entry) above
T3 sequence (Q16531 whole entry partner): as the sequence (Q16531 whole entry partner) above

[4] = molecular target: T4, IKZF2 (Homo sapiens, UniProt Q96SW2+Q9UKS7); experiment: Western-blot assay, substrate protein degradation in hPBMCs: IKZF2
T4 construct: effects of the compounds of the present disclosure on the expression of target proteins in cells; endogenous in cells; host or cells: human PBMCs (hPBMCs)
T4 sequence (Q9UKS7 whole entry): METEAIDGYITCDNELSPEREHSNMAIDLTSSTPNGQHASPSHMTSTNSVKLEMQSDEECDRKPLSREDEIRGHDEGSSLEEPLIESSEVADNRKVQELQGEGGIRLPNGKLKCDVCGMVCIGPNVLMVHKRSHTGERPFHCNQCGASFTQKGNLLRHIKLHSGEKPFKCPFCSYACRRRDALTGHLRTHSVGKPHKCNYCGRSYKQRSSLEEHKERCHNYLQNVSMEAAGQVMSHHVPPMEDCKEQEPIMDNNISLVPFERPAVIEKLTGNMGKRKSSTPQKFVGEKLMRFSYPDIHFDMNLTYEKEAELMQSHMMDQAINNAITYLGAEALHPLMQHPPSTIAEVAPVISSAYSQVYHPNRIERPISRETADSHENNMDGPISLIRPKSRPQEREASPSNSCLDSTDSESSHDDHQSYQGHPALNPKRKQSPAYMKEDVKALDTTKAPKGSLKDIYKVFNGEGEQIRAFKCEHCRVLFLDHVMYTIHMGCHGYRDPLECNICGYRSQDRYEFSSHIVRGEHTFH
T4 sequence (Q96SW2 whole entry): as the sequence (Q96SW2 whole entry) above
T4 sequence (Q16531 whole entry partner): as the sequence (Q16531 whole entry partner) above

[5] = molecular target: T5, IKZF1 (Homo sapiens, UniProt Q13422+Q96SW2); experiment: Western-blot assay, substrate protein degradation in hPBMCs: IKZF1
T5 construct: effects of the compounds of the present disclosure on the expression of target proteins in cells; endogenous in cells; host or cells: human PBMCs (hPBMCs)
T5 sequence (Q13422 whole entry): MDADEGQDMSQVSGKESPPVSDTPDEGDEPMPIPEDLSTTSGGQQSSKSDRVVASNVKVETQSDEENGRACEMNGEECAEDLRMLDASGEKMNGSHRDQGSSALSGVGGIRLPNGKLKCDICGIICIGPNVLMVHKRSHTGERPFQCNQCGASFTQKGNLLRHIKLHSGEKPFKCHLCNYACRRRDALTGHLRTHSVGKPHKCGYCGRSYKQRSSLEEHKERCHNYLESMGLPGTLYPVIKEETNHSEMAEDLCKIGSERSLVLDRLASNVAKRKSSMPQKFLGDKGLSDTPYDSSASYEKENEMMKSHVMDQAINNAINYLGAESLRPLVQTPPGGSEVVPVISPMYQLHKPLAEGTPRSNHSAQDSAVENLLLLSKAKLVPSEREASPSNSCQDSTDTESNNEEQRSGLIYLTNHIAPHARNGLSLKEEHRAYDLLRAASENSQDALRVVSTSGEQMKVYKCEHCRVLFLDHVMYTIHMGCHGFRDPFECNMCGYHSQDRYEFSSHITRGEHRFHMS
T5 sequence (Q96SW2 whole entry): as the sequence (Q96SW2 whole entry) above
T5 sequence (Q16531 whole entry partner): as the sequence (Q16531 whole entry partner) above

[6] = molecular target: T6, WEE1 (Homo sapiens, UniProt P30291+Q96SW2); experiment: Western-blot assay, substrate protein degradation in hPBMCs: WEE1
T6 construct: effects of the compounds of the present disclosure on the expression of target proteins in cells; endogenous in cells; host or cells: human PBMCs (hPBMCs)
T6 sequence (P30291 whole entry): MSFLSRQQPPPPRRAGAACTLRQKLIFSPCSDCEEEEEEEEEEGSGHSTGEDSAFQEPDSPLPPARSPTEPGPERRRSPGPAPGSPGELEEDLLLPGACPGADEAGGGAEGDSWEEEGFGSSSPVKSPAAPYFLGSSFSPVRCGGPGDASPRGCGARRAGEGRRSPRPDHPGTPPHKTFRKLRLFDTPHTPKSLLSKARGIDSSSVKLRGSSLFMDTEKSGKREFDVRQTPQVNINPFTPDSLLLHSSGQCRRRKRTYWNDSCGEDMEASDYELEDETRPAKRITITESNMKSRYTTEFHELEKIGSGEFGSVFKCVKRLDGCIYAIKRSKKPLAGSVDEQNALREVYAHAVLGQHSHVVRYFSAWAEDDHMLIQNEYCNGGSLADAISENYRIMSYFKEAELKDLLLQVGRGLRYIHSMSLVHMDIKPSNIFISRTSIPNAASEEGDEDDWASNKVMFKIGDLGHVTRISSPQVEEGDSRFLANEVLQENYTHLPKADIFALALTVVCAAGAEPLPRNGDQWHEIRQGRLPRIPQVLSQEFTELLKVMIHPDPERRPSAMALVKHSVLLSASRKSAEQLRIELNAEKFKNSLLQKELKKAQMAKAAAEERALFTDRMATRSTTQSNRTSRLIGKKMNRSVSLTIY
T6 sequence (Q96SW2 whole entry): as the sequence (Q96SW2 whole entry) above
T6 sequence (Q16531 whole entry partner): as the sequence (Q16531 whole entry partner) above

SMILES	GSPT1 substrate protein remaining % [1]	CK1α substrate protein remaining % [2]	IKZF3 substrate protein remaining % [3]	IKZF2 substrate protein remaining % [4]	IKZF1 substrate protein remaining % [5]	WEE1 substrate protein remaining % [6]
O=C1CCN(N2C(=O)c3ccc(CN4CCN(c5ccccc5)CC4)cc3C2=O)C(=O)N1 [GT-06719, 2-(2,4-dioxotetrahydropyrimidin-1(2H)-yl)-5-((4-phenylpiperazin-1-yl)methyl)isoindoline-1,3-dione]	B ("B" is defined as 80%< substrate protein remaining %≤ 100%)	B ("B" is defined as 80%< substrate protein remaining %≤ 100%)	A ("A" is defined as 0% ≤ substrate protein remaining % ≤ 80%)	B ("B" is defined as 80%< substrate protein remaining %≤ 100%)	B ("B" is defined as 80%< substrate protein remaining %≤ 100%)	B ("B" is defined as 80%< substrate protein remaining %≤ 100%)
COc1ccccc1N1CCN(Cc2ccc3c(c2)C(=O)N(N2CCC(=O)NC2=O)C3=O)CC1 [GT-06720, 2-(2,4-dioxotetrahydropyrimidin-1(2H)-yl)-5-((4-(2-methoxyphenyl)piperazin-1-yl)methyl)isoindoline-1,3-dione]	B ("B" is defined as 80%< substrate protein remaining %≤ 100%)	B ("B" is defined as 80%< substrate protein remaining %≤ 100%)	A ("A" is defined as 0% ≤ substrate protein remaining % ≤ 80%)	B ("B" is defined as 80%< substrate protein remaining %≤ 100%)	B ("B" is defined as 80%< substrate protein remaining %≤ 100%)	B ("B" is defined as 80%< substrate protein remaining %≤ 100%)
COc1cccc(N2CCN(Cc3ccc4c(c3)C(=O)N(N3CCC(=O)NC3=O)C4=O)CC2)c1 [GT-06721, 2-(2,4-dioxotetrahydropyrimidin-1(2H)-yl)-5-((4-(3-methoxyphenyl)piperazin-1-yl)methyl)isoindoline-1,3-dione]	B ("B" is defined as 80%< substrate protein remaining %≤ 100%)	B ("B" is defined as 80%< substrate protein remaining %≤ 100%)	A ("A" is defined as 0% ≤ substrate protein remaining % ≤ 80%)	A ("A" is defined as 0% ≤ substrate protein remaining % ≤ 80%)	A ("A" is defined as 0% ≤ substrate protein remaining % ≤ 80%)	B ("B" is defined as 80%< substrate protein remaining %≤ 100%)
O=C1CCN(N2C(=O)c3ccc(CN4CCN(c5cccc(Br)c5)CC4)cc3C2=O)C(=O)N1 [GT-06722, 5-((4-(3-bromophenyl)piperazin-1-yl)methyl)-2-(2,4-dioxotetrahydropyrimidin-1(2H)-yl)isoindoline-1,3-dione]	B ("B" is defined as 80%< substrate protein remaining %≤ 100%)	A ("A" is defined as 0% ≤ substrate protein remaining % ≤ 80%)	A ("A" is defined as 0% ≤ substrate protein remaining % ≤ 80%)	B ("B" is defined as 80%< substrate protein remaining %≤ 100%)	A ("A" is defined as 0% ≤ substrate protein remaining % ≤ 80%)	A ("A" is defined as 0% ≤ substrate protein remaining % ≤ 80%)
O=C1CCN(N2C(=O)c3ccc(CN4CCN(c5cccc(F)c5)CC4)cc3C2=O)C(=O)N1 [GT-06724, 2-(2,4-dioxotetrahydropyrimidin-1(2H)-yl)-5-((4-(3-fluorophenyl)piperazin-1-yl)methyl)isoindoline-1,3-dione]	B ("B" is defined as 80%< substrate protein remaining %≤ 100%)	B ("B" is defined as 80%< substrate protein remaining %≤ 100%)	B ("B" is defined as 80%< substrate protein remaining %≤ 100%)	B ("B" is defined as 80%< substrate protein remaining %≤ 100%)	A ("A" is defined as 0% ≤ substrate protein remaining % ≤ 80%)	A ("A" is defined as 0% ≤ substrate protein remaining % ≤ 80%)
O=C1CCN(N2C(=O)c3ccc(CN4CCN(c5ccc(F)cc5)CC4)cc3C2=O)C(=O)N1 [GT-06725, 2-(2,4-dioxotetrahydropyrimidin-1(2H)-yl)-5-((4-(4-fluorophenyl)piperazin-1-yl)methyl)isoindoline-1,3-dione]	B ("B" is defined as 80%< substrate protein remaining %≤ 100%)	B ("B" is defined as 80%< substrate protein remaining %≤ 100%)	B ("B" is defined as 80%< substrate protein remaining %≤ 100%)	B ("B" is defined as 80%< substrate protein remaining %≤ 100%)	A ("A" is defined as 0% ≤ substrate protein remaining % ≤ 80%)	B ("B" is defined as 80%< substrate protein remaining %≤ 100%)
O=C1CCN(N2C(=O)c3ccc(CN4CCN(c5ccccc5Cl)CC4)cc3C2=O)C(=O)N1 [GT-06726, 5-((4-(2-chlorophenyl)piperazin-1-yl)methyl)-2-(2,4-dioxotetrahydropyrimidin-1(2H)-yl)isoindoline-1,3-dione]	B ("B" is defined as 80%< substrate protein remaining %≤ 100%)	A ("A" is defined as 0% ≤ substrate protein remaining % ≤ 80%)	A ("A" is defined as 0% ≤ substrate protein remaining % ≤ 80%)	A ("A" is defined as 0% ≤ substrate protein remaining % ≤ 80%)	B ("B" is defined as 80%< substrate protein remaining %≤ 100%)	A ("A" is defined as 0% ≤ substrate protein remaining % ≤ 80%)
O=C1CCN(N2C(=O)c3ccc(CN4CCN(c5ccccc5Br)CC4)cc3C2=O)C(=O)N1 [GT-06727, 5-((4-(2-bromophenyl)piperazin-1-yl)methyl)-2-(2,4-dioxotetrahydropyrimidin-1(2H)-yl)isoindoline-1,3-dione]	B ("B" is defined as 80%< substrate protein remaining %≤ 100%)	A ("A" is defined as 0% ≤ substrate protein remaining % ≤ 80%)	A ("A" is defined as 0% ≤ substrate protein remaining % ≤ 80%)	A ("A" is defined as 0% ≤ substrate protein remaining % ≤ 80%)	B ("B" is defined as 80%< substrate protein remaining %≤ 100%)	B ("B" is defined as 80%< substrate protein remaining %≤ 100%)
COc1ccc(N2CCN(Cc3ccc4c(c3)C(=O)N(N3CCC(=O)NC3=O)C4=O)CC2)cc1 [GT-06728, 2-(2,4-dioxotetrahydropyrimidin-1(2H)-yl)-5-((4-(4-methoxyphenyl)piperazin-1-yl)methyl)isoindoline-1,3-dione]	B ("B" is defined as 80%< substrate protein remaining %≤ 100%)	A ("A" is defined as 0% ≤ substrate protein remaining % ≤ 80%)	A ("A" is defined as 0% ≤ substrate protein remaining % ≤ 80%)	A ("A" is defined as 0% ≤ substrate protein remaining % ≤ 80%)	B ("B" is defined as 80%< substrate protein remaining %≤ 100%)	B ("B" is defined as 80%< substrate protein remaining %≤ 100%)
COc1ccc(N2CCN(Cc3ccc4c(c3)CN(N3CCC(=O)NC3=O)C4=O)CC2)cc1 [GT-06767, 1-(5-((4-(4-methoxyphenyl)piperazin-1-yl)methyl)-1-oxoisoindolin-2-yl)dihydropyrimidine-2,4(1H,3H)-dione]	A ("A" is defined as 0% ≤ substrate protein remaining % ≤ 80%)	A ("A" is defined as 0% ≤ substrate protein remaining % ≤ 80%)	A ("A" is defined as 0% ≤ substrate protein remaining % ≤ 80%)	A ("A" is defined as 0% ≤ substrate protein remaining % ≤ 80%)	A ("A" is defined as 0% ≤ substrate protein remaining % ≤ 80%)	A ("A" is defined as 0% ≤ substrate protein remaining % ≤ 80%)
O=C1CCN(N2Cc3cc(CN4CCN(c5ccc(Br)cc5)CC4)ccc3C2=O)C(=O)N1 [GT-06768, 1-(5-((4-(4-bromophenyl)piperazin-1-yl)methyl)-1-oxoisoindolin-2-yl)dihydropyrimidine-2,4(1H,3H)-dione]	A ("A" is defined as 0% ≤ substrate protein remaining % ≤ 80%)	A ("A" is defined as 0% ≤ substrate protein remaining % ≤ 80%)	A ("A" is defined as 0% ≤ substrate protein remaining % ≤ 80%)	B ("B" is defined as 80%< substrate protein remaining %≤ 100%)	B ("B" is defined as 80%< substrate protein remaining %≤ 100%)	A ("A" is defined as 0% ≤ substrate protein remaining % ≤ 80%)
Cc1ccccc1N1CCN(Cc2ccc3c(c2)CN(N2CCC(=O)NC2=O)C3=O)CC1 [GT-06769, 1-(1-oxo-5-((4-(o-tolyl)piperazin-1-yl)methyl)isoindolin-2-yl)dihydropyrimidine-2,4(1H,3H)-dione]	A ("A" is defined as 0% ≤ substrate protein remaining % ≤ 80%)	A ("A" is defined as 0% ≤ substrate protein remaining % ≤ 80%)	A ("A" is defined as 0% ≤ substrate protein remaining % ≤ 80%)	A ("A" is defined as 0% ≤ substrate protein remaining % ≤ 80%)	B ("B" is defined as 80%< substrate protein remaining %≤ 100%)	A ("A" is defined as 0% ≤ substrate protein remaining % ≤ 80%)
